From PubChem BioAssay (NCI)
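Each compound was tested at five concentrations against cells in 96-well plates for 48 hours. GI50 = concentration required for 50% inhibition of growth. TGI marks complete inhibition of growth.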

Legend:
Test in all cases: NCI tumour cell line growth inhibition, 48 h
DU-145 prostate = system: DU-145 prostate
BT-549 breast = system: BT-549 breast
SNB-19 CNS = system: SNB-19 CNS
T-47D breast = system: T-47D breast
IGROV1 ovarian = system: IGROV1 ovarian
HOP-92 NSCLC = system: HOP-92 NSCLC
SF-295 CNS = system: SF-295 CNS
OVCAR-8 ovarian = system: OVCAR-8 ovarian
PC-3 prostate = system: PC-3 prostate
OVCAR-3 ovarian = system: OVCAR-3 ovarian
CAKI-1 renal = system: CAKI-1 renal
LOX IMVI melanoma = system: LOX IMVI melanoma
UO-31 renal = system: UO-31 renal
EKVX NSCLC = system: EKVX NSCLC
NCI-H460 lung = system: NCI-H460 lung
SNB-75 CNS = system: SNB-75 CNS
RPMI-8226 leukemia = system: RPMI-8226 leukemia
MDA-MB-468 breast = system: MDA-MB-468 breast
HT29 colon = system: HT29 colon
RXF 393 renal = system: RXF 393 renal
SK-MEL-2 melanoma = system: SK-MEL-2 melanoma
SR leukemia = system: SR leukemia
UACC-62 melanoma = system: UACC-62 melanoma
UACC-257 melanoma = system: UACC-257 melanoma
SF-539 CNS = system: SF-539 CNS
HCT-15 colon = system: HCT-15 colon
MDA-MB-231 breast = system: MDA-MB-231 breast
HOP-62 NSCLC = system: HOP-62 NSCLC
OVCAR-5 ovarian = system: OVCAR-5 ovarian
SK-MEL-28 melanoma = system: SK-MEL-28 melanoma
M14 melanoma = system: M14 melanoma
CCRF-CEM leukemia = system: CCRF-CEM leukemia
SW-620 colon = system: SW-620 colon
MDA-MB-435 = system: MDA-MB-435
A498 renal = system: A498 renal
A549 NSCLC = system: A549 NSCLC
786-0 renal = system: 786-0 renal
NCI-H226 lung = system: NCI-H226 lung
HL-60(TB) leukemia = system: HL-60(TB) leukemia
TK-10 renal = system: TK-10 renal
ACHN renal = system: ACHN renal
K-562 leukemia = system: K-562 leukemia
NCI-H522 lung = system: NCI-H522 lung
NCI/ADR-RES ovarian = system: NCI/ADR-RES ovarian
SK-OV-3 ovarian = system: SK-OV-3 ovarian
MOLT-4 leukemia = system: MOLT-4 leukemia
HCC-2998 colon = system: HCC-2998 colon
SK-MEL-5 melanoma = system: SK-MEL-5 melanoma
COLO 205 colon = system: COLO 205 colon
U251 CNS = system: U251 CNS
MALME-3M melanoma = system: MALME-3M melanoma
KM12 colon = system: KM12 colon
SF-268 CNS = system: SF-268 CNS
MCF7 breast = system: MCF7 breast
HS 578T breast = system: HS 578T breast
OVCAR-4 ovarian = system: OVCAR-4 ovarian
HCT-116 colon = system: HCT-116 colon
NCI-H23 lung = system: NCI-H23 lung
SN12C renal = system: SN12C renal

Cc1cccc(/C=C/c2ccc(NC(=S)NCCCCN(C)C)cc2)c1
GI50 (DU-145 prostate): 15.1 µM | TGI (DU-145 prostate): 29.2 µM | GI50 (BT-549 breast): 15.3 µM | TGI (BT-549 breast): 29.9 µM | GI50 (SNB-19 CNS): 16.1 µM | TGI (SNB-19 CNS): 29.8 µM | GI50 (T-47D breast): 16.9 µM | TGI (T-47D breast): 36.9 µM | GI50 (IGROV1 ovarian): 16.6 µM | TGI (IGROV1 ovarian): 31.2 µM | GI50 (HOP-92 NSCLC): 8.39 µM | TGI (HOP-92 NSCLC): 24.3 µM | GI50 (SF-295 CNS): 16.2 µM | TGI (SF-295 CNS): 31.5 µM | GI50 (OVCAR-8 ovarian): 18.9 µM | TGI (OVCAR-8 ovarian): 38.1 µM | GI50 (PC-3 prostate): 14.2 µM | TGI (PC-3 prostate): 32.2 µM | GI50 (OVCAR-3 ovarian): 12.7 µM | TGI (OVCAR-3 ovarian): 26.1 µM | GI50 (CAKI-1 renal): 14.5 µM | TGI (CAKI-1 renal): 27.9 µM | GI50 (LOX IMVI melanoma): 11.6 µM | TGI (LOX IMVI melanoma): 25.4 µM | GI50 (UO-31 renal): 14.2 µM | TGI (UO-31 renal): 27.3 µM | GI50 (EKVX NSCLC): 16.2 µM | TGI (EKVX NSCLC): 31.2 µM | GI50 (NCI-H460 lung): 12.8 µM | TGI (NCI-H460 lung): 27.3 µM | GI50 (SNB-75 CNS): 9.05 µM | TGI (SNB-75 CNS): 21.9 µM | GI50 (RPMI-8226 leukemia): 20.1 µM | TGI (RPMI-8226 leukemia): 72.4 µM | GI50 (MDA-MB-468 breast): 12.7 µM | TGI (MDA-MB-468 breast): 26.6 µM | GI50 (HT29 colon): 5.38 µM | TGI (HT29 colon): 29.9 µM | GI50 (RXF 393 renal): 11.3 µM | TGI (RXF 393 renal): 24.2 µM | GI50 (SK-MEL-2 melanoma): 18.5 µM | TGI (SK-MEL-2 melanoma): 34.9 µM | GI50 (SR leukemia): 12.2 µM | TGI (SR leukemia): 39.2 µM | GI50 (UACC-62 melanoma): 15.9 µM | TGI (UACC-62 melanoma): 29.6 µM | GI50 (UACC-257 melanoma): 18.1 µM | TGI (UACC-257 melanoma): 34.8 µM | GI50 (SF-539 CNS): 13.4 µM | TGI (SF-539 CNS): 26.3 µM | GI50 (HCT-15 colon): 11.9 µM | TGI (HCT-15 colon): 25.1 µM | GI50 (MDA-MB-231 breast): 12.9 µM | TGI (MDA-MB-231 breast): 26.6 µM | GI50 (HOP-62 NSCLC): 19 µM | TGI (HOP-62 NSCLC): 37.9 µM | GI50 (OVCAR-5 ovarian): 15.5 µM | TGI (OVCAR-5 ovarian): 29.5 µM | GI50 (SK-MEL-28 melanoma): 15.6 µM | TGI (SK-MEL-28 melanoma): 29.3 µM | GI50 (M14 melanoma): 15.4 µM | TGI (M14 melanoma): 31.6 µM | GI50 (CCRF-CEM leukemia): 11.7 µM | TGI (CCRF-CEM leukemia): 37.3 µM | GI50 (SW-620 colon): 14.8 µM | TGI (SW-620 colon): 29.5 µM | GI50 (MDA-MB-435): 13.9 µM | TGI (MDA-MB-435): 27.7 µM | GI50 (A498 renal): 13.5 µM | TGI (A498 renal): 27.4 µM | GI50 (A549 NSCLC): 18.4 µM | TGI (A549 NSCLC): 39.8 µM | GI50 (786-0 renal): 14.9 µM | TGI (786-0 renal): 30.1 µM | GI50 (NCI-H226 lung): 14.9 µM | TGI (NCI-H226 lung): 31.2 µM | GI50 (HL-60(TB) leukemia): 8.41 µM | TGI (HL-60(TB) leukemia): 29.7 µM | GI50 (TK-10 renal): 20.7 µM | TGI (TK-10 renal): 38.5 µM | GI50 (ACHN renal): 16.3 µM | TGI (ACHN renal): 29.9 µM | GI50 (K-562 leukemia): 3.96 µM | TGI (K-562 leukemia): > 100 µM | GI50 (NCI-H522 lung): 15.9 µM | TGI (NCI-H522 lung): 33.5 µM | GI50 (NCI/ADR-RES ovarian): 16.3 µM | TGI (NCI/ADR-RES ovarian): 32.3 µM | GI50 (SK-OV-3 ovarian): 19.7 µM | TGI (SK-OV-3 ovarian): 36.4 µM | GI50 (MOLT-4 leukemia): 13.4 µM | TGI (MOLT-4 leukemia): 37.5 µM | GI50 (HCC-2998 colon): 15.1 µM | TGI (HCC-2998 colon): 29.9 µM | GI50 (SK-MEL-5 melanoma): 15.9 µM | TGI (SK-MEL-5 melanoma): 29.4 µM | GI50 (COLO 205 colon): 15.6 µM | TGI (COLO 205 colon): 33.5 µM | GI50 (U251 CNS): 16.1 µM | TGI (U251 CNS): 33.7 µM | GI50 (MALME-3M melanoma): 15.8 µM | TGI (MALME-3M melanoma): 29.6 µM | GI50 (KM12 colon): 16.5 µM | TGI (KM12 colon): 31.9 µM | GI50 (SF-268 CNS): 13.8 µM | TGI (SF-268 CNS): 28.5 µM | GI50 (MCF7 breast): 11.8 µM | TGI (MCF7 breast): 27.5 µM | GI50 (HS 578T breast): 16.6 µM | TGI (HS 578T breast): 38.4 µM | GI50 (OVCAR-4 ovarian): 14.8 µM | TGI (OVCAR-4 ovarian): 29 µM | GI50 (HCT-116 colon): 11 µM | TGI (HCT-116 colon): 29.6 µM | GI50 (NCI-H23 lung): 16.1 µM | TGI (NCI-H23 lung): 31.2 µM | GI50 (SN12C renal): 14.9 µM | TGI (SN12C renal): 29 µM
